Among the data in patent publication US8846698B2, “Pyrrolo[2,3-d]pyrimidine tropomysin-related kinase inhibitors” (Pfizer Limited, priority 2011, dated 2014) are IC50 values, retold here.

As usually defined, the IC50 is the concentration that inhibits the measured activity by half.

The target of this assay is TRKA (Homo sapiens (Human), UniProt P04629). In words: Isolated TRK enzyme assay (HTRF KinEASE-TK), TRKA. It counts as biochemical. The following applies: read-out: Trka enzyme (IC50). In general terms: Time-resolved FRET reads energy transfer from a long-lived donor to a nearby acceptor.
Sequence of TRKA (P04629 441-796): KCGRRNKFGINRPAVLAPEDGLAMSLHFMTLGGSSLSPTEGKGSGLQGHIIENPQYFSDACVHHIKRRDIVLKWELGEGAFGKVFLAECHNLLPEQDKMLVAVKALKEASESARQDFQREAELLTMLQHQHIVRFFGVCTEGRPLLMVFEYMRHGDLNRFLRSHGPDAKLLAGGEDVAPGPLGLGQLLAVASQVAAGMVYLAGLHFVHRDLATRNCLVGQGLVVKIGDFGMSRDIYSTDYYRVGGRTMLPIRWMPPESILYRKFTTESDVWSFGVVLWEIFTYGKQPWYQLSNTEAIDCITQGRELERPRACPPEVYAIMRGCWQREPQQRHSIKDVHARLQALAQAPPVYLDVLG

For the compound `CC(C)n1cc(C(=O)c2cncc(NC(=O)c3n[nH]c4c3CCC4)c2)c2cncnc21` [Example 419, 1,4,5,6-Tetrahydro-cyclopentapyrazole-3-carboxylic acid [5-(7-isopropyl-7H-pyrrolo[2,3-d]pyrimidine-5-carbonyl)-pyridin-3-yl]-amide], the IC50 turned out to be 15.1 nM. Take `CC(C)n1cc(C(=O)c2cncc(NC(=O)c3cncnc3N)c2)c2cncnc21` [Example 420, 4-Amino-pyrimidine-5-carboxylic acid [5-(7-isopropyl-7H-pyrrolo[2,3-d]pyrimidine-5-carbonyl)-pyridin-3-yl]-amide]: the IC50 was found to be 9800 nM. Then `CC(C)n1cc(C(=O)c2cncc(NC(=O)c3c[nH]c4cnccc34)c2)c2cncnc21` [Example 421, 1H-Pyrrolo[2,3-c]pyridine-3-carboxylic acid [5-(7-isopropyl-7H-pyrrolo[2,3-d]pyrimidine-5-carbonyl)-pyridin-3-yl]amide], with 1730 nM; and `Cc1cc(C(=O)Nc2cncc(C(=O)c3cn(C(C)C)c4ncncc34)c2)ccn1` [Example 422, N-[5-(7-Isopropyl-7H-pyrrolo[2,3-d]pyrimidine-5-carbonyl)-pyridin-3-yl]-2-methyl-isonicotinamide], with 451 nM; and `CC(C)n1cc(C(=O)c2cncc(NC(=O)c3ccc4nccn4c3)c2)c2cncnc21` [Example 423, Imidazo[1,2-a]pyridine-6-carboxylicacid [5-(7-isopropyl-7H-pyrrolo[2,3-d]pyrimidine-5-carbonyl)-pyridin-3-yl]amide], with 1330 nM.

Regarding `CC(C)n1cc(C(=O)c2cncc(NC(=O)c3nc[nH]n3)c2)c2cncnc21` [Example 424, 1H-1,2,4-Triazole-3-carboxylic acid[5-(7-isopropyl-7H-pyrrolo[2,3-d]pyrimidine-5-carbonyl)-pyridin-3-yl]-amide], the IC50 came to 4310 nM. Under `COc1ccc(C(=O)Nc2cncc(C(=O)c3cn(C(C)C)c4ncncc34)c2)nc1` [Example 425, 5-Methoxy-pyridine-2-carboxylic acid [5-(7-isopropyl-7H-pyrrolo[2,3-d]pyrimidine-5-carbonyl)-pyridin-3-yl]-amide] stands 796 nM; under `CC(C)n1cc(C(=O)c2cncc(NC(=O)c3cnnc4ccccc34)c2)c2cncnc21` [Example 426, Cinnoline-4-carboxylic acid [5-(7-isopropyl-7H-pyrrolo[2,3-d]pyrimidine-5-carbonyl)-pyridin-3-yl]-amide], 228 nM. Under `CC(C)n1cc(C(=O)c2cncc(NC(=O)c3ccn4ncnc4c3)c2)c2cncnc21` [Example 427, [1,2,4]Triazolo[1,5-a]pyridine-7-carboxylic acid [5-(7-isopropyl-7H-pyrrolo[2,3-d]pyrimidine-5-carbonyl)-pyridin-3-yl]amide] stands 93.4 nM; under `CC(C)n1cc(C(=O)c2cncc(NC(=O)c3cc4ncccn4n3)c2)c2cncnc21` [Example 428, Pyrazolo[1,5-a]pyrimidine-2-carboxylic acid [5-(7-isopropyl-7H-pyrrolo[2,3-d]pyrimidine-5-carbonyl)-pyridin-3-yl]amide], 960 nM.

For the compound `CC(C)n1cc(C(=O)c2cncc(NC(=O)c3ccccn3)c2)c2cncnc21` [Example 429, Pyridine-2-carboxylic acid [5-(7-isopropyl-7H-pyrrolo[2,3-d]pyrimidine-5-carbonyl)-pyridin-3-yl]-amide], the IC50 was 2740 nM. As for `CC(C)n1cc(C(=O)c2cncc(NC(=O)c3cncc(Cl)c3)c2)c2cncnc21` [Example 430, 5-Chloro-N-[5-(7-isopropyl-7H-pyrrolo[2,3-d]pyrimidine-5-carbonyl)-pyridin-3-yl]-nicotinamide], the IC50 was 297 nM. On to `CC(C)n1cc(C(=O)c2cncc(NC(=O)c3cc4occc4[nH]3)c2)c2cncnc21` [Example 431, 4H-Furo[3,2-b]pyrrole-5-carboxylic acid [5-(7-isopropyl-7H-pyrrolo1[2,3-d]pyrimidine-5-carbonyl)-pyridin-3-yl]-amide], for which the IC50 was 235 nM. Under `CC(C)n1cc(C(=O)c2cncc(NC(=O)c3ccn4ccnc4c3)c2)c2cncnc21` [Example 432, Imidazo[1,2-a]pyridine-7-carboxylicacid [5-(7-isopropyl-7H-pyrrolo[2,3-d]pyrimidine-5-carbonyl)-pyridin-3-yl]amide] stands 2790 nM; under `CCn1cc(C(=O)Nc2cncc(C(=O)c3cn(C(C)C)c4ncncc34)c2)cn1` [Example 433, 1-Ethyl-1H-pyrazole-4-carboxylic acid [5-(7-isopropyl-7H-pyrrolo[2,3-d]pyrimidine-5-carbonyl)-pyridin-3-yl]-amide], 246 nM; under `CC(C)n1cnc(C(=O)Nc2cncc(C(=O)c3cn(C(C)C)c4ncncc34)c2)c1` [Example 434, 1-Isopropyl-1H-imidazole-4-carboxylic acid [5-(7-isopropyl-7H-pyrrolo[2,3-d]pyrimidine-5-carbonyl)-pyridin-3-yl]-amide], 99.9 nM.

As to `COc1nc(C(=O)Nc2cncc(C(=O)c3cn(C(C)C)c4ncncc34)c2)cn2ccnc12` [Example 435, 8-Methoxy-imidazo[1,2-a]pyrazine-6-carboxylic acid [5-(7-isopropyl-7H-pyrrolo[2,3-d]pyrimidine-5-carbonyl)-pyridin-3-yl]amide], the half-inhibitory concentration (IC50) was found to be 5490 nM.

As to `CC(C)n1cc(C(=O)c2cncc(NC(=O)c3cnc4[nH]ccc4c3)c2)c2cncnc21` [Example 436, 1H-Pyrrolo[2,3-b]pyridine-5-carboxylic acid [5-(7-isopropyl-7H-pyrrolo[2,3-d]pyrimidine-5-carbonyl)-pyridin-3-yl]amide], the IC50 amounted to 205 nM.

On to `CCCc1cc(C(=O)Nc2cncc(C(=O)c3cn(C(C)C)c4ncncc34)c2)n(C)n1` [Example 437, 2-Methyl-5-propyl-2H-pyrazole-3-carboxylic acid [5-(7-isopropyl-7H-pyrrolo[2,3-d]pyrimidine-5-carbonyl)-pyridin-3-yl]amide], for which the half-maximal inhibitory concentration (IC50) worked out at 107 nM. Then `CC(C)c1csc(C(=O)Nc2cncc(C(=O)c3cn(C(C)C)c4ncncc34)c2)n1` [Example 438, 4-Isopropyl-thiazole-2-carboxylic acid [5-(7-isopropyl-7H-pyrrolo[2,3-d]pyrimidine-5-carbonyl)-pyridin-3-yl]-amide], with 31.2 nM; and `Cc1coc2cnc(C(=O)Nc3cncc(C(=O)c4cn(C(C)C)c5ncncc45)c3)cc12` [Example 439, 3-Methyl-furo[2,3-c]pyridine-5-carboxylic acid [5-(7-isopropyl-7H-pyrrolo[2,3-d]pyrimidine-5-carbonyl)-pyridin-3-yl]-amide], with 22.5 nM.

As for `Cc1cccc(C(=O)Nc2cncc(C(=O)c3cn(C(C)C)c4ncncc34)c2)n1` [Example 440, 6-Methyl-pyridine-2-carboxylic acid[5-(7-isopropyl-7H-pyrrolo[2,3-d]pyrimidine-5-carbonyl)-pyridin-3-yl]-amide], the IC50 turned out to be 676 nM. `CC(C)n1cc(C(=O)c2cncc(NC(=O)c3c(C(F)(F)F)nn(C)c3Cl)c2)c2cncnc21` [Example 441, 5-Chloro-1-methyl-3-trifluoromethyl-1H-pyrazole-4-carboxylic acid [5-(7-isopropyl-7H-pyrrolo[2,3-d]pyrimidine-5-carbonyl)-pyridin-3-yl]-amide]: the IC50 was determined as 8390 nM. Then `COc1ccc2[nH]c(C(=O)Nc3cncc(C(=O)c4cn(C(C)C)c5ncncc45)c3)nc2c1` [Example 442, 5-Methoxy-1H-benzimidazole-2-carboxylic acid [5-(7-isopropyl-7H-pyrrolo[2,3-d]pyrimidine-5-carbonyl)-pyridin-3-yl]amide], with 36.6 nM. In the case of `Cc1c(Cl)c(C(=O)Nc2cncc(C(=O)c3cn(C(C)C)c4ncncc34)c2)nn1C` [Example 443, 4-Chloro-1,5-dimethyl-1H-pyrazole-3-carboxylic acid [5-(7-isopropyl-7H-pyrrolo[2,3-d]pyrimidine-5-carbonyl)-pyridin-3-yl]amide], the IC50 stood at 47.7 nM. Then `CC(C)n1cc(C(=O)c2cncc(NC(=O)c3nccc4[nH]ccc34)c2)c2cncnc21` [Example 444, 1H-Pyrrolo[3,2-c]pyridine-4-carboxylic acid [5-(7-isopropyl-7H-pyrrolo[2,3-d]pyrimidine-5-carbonyl)-pyridin-3-yl]amide], with 496 nM.

With `CCc1ccnc(C(=O)Nc2cncc(C(=O)c3cn(C(C)C)c4ncncc34)c2)c1` [Example 445, 4-Ethyl-pyridine-2-carboxylic acid [5-(7-isopropyl-7H-pyrrolo[2,3-d]pyrimidine-5-carbonyl)-pyridin-3-yl]-amide], the IC50 amounted to 5.51 nM. Under `CC(C)n1cc(C(=O)c2cncc(NC(=O)c3cnc4c(c3)OCCO4)c2)c2cncnc21` [Example 446, 2,3-Dihydro-1,4-dioxino[2,3-b]pyridine-7-carboxylic acid [5-(7-isopropyl-7H-pyrrolo[2,3-d]pyrimidine-5-carbonyl)-pyridin-3-yl]-amide] stands 812 nM; under `CC(C)n1cc(C(=O)c2cncc(NC(=O)c3ccc4[nH]ccc4n3)c2)c2cncnc21` [Example 447, 1H-Pyrrolo[3,2-b]pyridine-5-carboxylic acid [5-(7-isopropyl-7H-pyrrolo[2,3-d]pyrimidine-5-carbonyl)-pyridin-3-yl]amide], 919 nM; under `CC(C)n1cc(C(=O)c2cncc(NC(=O)c3ccn4nccc4c3)c2)c2cncnc21` [Example 448, Pyrazolo[1,5-a]pyridine-5-carboxylic acid [5-(7-isopropyl-7H-pyrrolo[2,3-d]pyrimidine-5-carbonyl)-pyridin-3-yl]-amide], 272 nM. Regarding `COc1ccc2ncc(C(=O)Nc3cncc(C(=O)c4cn(C(C)C)c5ncncc45)c3)cc2c1` [Example 449, 6-Methoxy-quinoline-3-carboxylic acid [5-(7-isopropyl-7H-pyrrolo[2,3-d]pyrimidine-5-carbonyl)-pyridin-3-yl]-amide], the IC50 came to 155 nM.

In the case of `Cc1cc(C(=O)Nc2cncc(C(=O)c3cn(C(C)C)c4ncncc34)c2)n(CC(F)(F)F)n1` [Example 450, 5-Methyl-2-(2,2,2-trifluoro-ethyl)-2H-pyrazole-3-carboxylic acid [5-(7-isopropyl-7H-pyrrolo[2,3-d]pyrimidine-5-carbonyl)-pyridin-3-yl]-amide], the IC50 came out at 3150 nM.
